Test results from patent US6630303B1, “Methods of screening for compounds active on Staphylococcus aureus target genes” (priority 1995, dated 2003).

Experiments:
[1] = test system: Salmonella wild type parent strain; experiment: Carbon source utilization profile (gene sensor methodology); format: cell-based; conditions: sublethal concentration; carbon source not used by the dapA or murCEFG mutant
Text: The growth conditional mutants are also used in gene sensor methodology, e.g., using carbon utilization profiles. Ts mutants fail to metabolize different carbon sources in semi-permissive growth conditions. The carbon sources not utilized by a specific mutant or group of mutants provide additional phenotypes associated with the crippled essential function. Moreover, some of these carbon source markers were also not used by the wild type strain exposed to sub-MIC concentrations of known drugs affecting the same specific cellular targets or pathways.

[2] = test system: ts S. typhimurium mutant alleles of the gyrase subunit A; experiment: Hypersusceptibility (MIC) of S. typhimurium gyrA ts mutants at semi-permissive temperature; format: cell-based, Salmonella typhimurium
Experimental: As an illustration of the hypersusceptibility profiles for a group of bacterial ts mutant strains, the minimal inhibitory concentrations (MICs) of various drugs and toxic agents were determined for a set of Salmonella typhimurium temperature-sensitive essential gene mutants.
The MICs were measured by using a standard micro broth dilution technique following the recommendations of the National Committee for Clinical Laboratory Standards (1994). Bacteria were first grown in Mueller-Hinton broth at 30° C., diluted to 10^5 cfu/ml and used to inoculate 96-microwell plates containing two-fold dilutions of antibiotics in Mueller-Hinton broth. Plates were incubated for 20 h at a semi-permissive temperature (35° C.) and the MIC was determined as the lowest dilution of antibiotic preventing visible growth.
A two-fold difference in the susceptibility level of the mutant strain compared to that of the parental strain is within the limits of the experimental variation and thus a ≧4-fold decrease in MIC was considered as a significant hypersusceptibility.
The specific hypersensitivity of temperature sensitive mutations in a known target to inhibitors of that target is shown in FIG. 1 with the susceptibility profile of three ts S. typhimurium mutant alleles of the gyrase subunit A (gyrA212, gyrA215 and gyrA216) grown at a semi-permissive temperature (35° C.).

[3] = mutant gyrA222, semi-permissive temperature 35° C.
[4] = mutant gyrA215, semi-permissive temperature 35° C.

Row | Compound | carbon source metabolism [1] | hypersusceptibility compared to wild-type parent strain [2, 3] | hypersusceptibility compared to wild-type parent strain [2, 4] | hypersusceptibility compared to wild-type parent strain ([2]; mutant gyrA276, semi-permissive temperature 35° C.)
1 | Cn1nnnc1SCC1=C(C(=O)O)N2C(=O)[C@@H](NC(=O)[C@H](O)c3ccccc3)[C@H]2SC1 [cefamandole] | prevented the Salmonella wild type parent strain from metabolizing the same carbon source |  |  | 
2 | O=C(O)c1cn(C2CC2)c2cc(N3CCNCC3)c(F)cc2c1=O [ciprofloxacin] |  | hypersusceptibility |  | 
3 | CCn1cc(C(=O)O)c(=O)c2cc(F)c(N3CCNCC3)cc21 [norfloxacin] |  | hypersusceptibility | hypersusceptibility | 
4 | coumermycin |  |  | hypersusceptibility | hypersusceptibility
